The target of this assay is MSI2 (Homo sapiens, UniProt Q96DH6). Put plainly: MS2-TRAP aptamer pull-down reporter assay in HEK293 cells. To be noted: HEK293, 24 h treatment. Details: HEK293 cells (with a high baseline MSI2 expression); endogenous in cells; host or cells: HEK293. The assay is classed as cell-based. The source says: Figure 5: Characterization of R12–8–44–3 in a reporter cell line. […] As a positive control, Ro 08–2750 (aka “Ro”) is also included in these studies. (B) Schematic of reporter assay. HEK293 cells are transfected with a plasmid encoding an arbitrary gene (Luc) with UAG repeats (to recruit MSI2) and MS2 repeats (for pulldown) appended to its 3’ UTR. The same vector also includes FLAG-labeled MS2-BP. Upon anti-FLAG immunoprecipitation (IP), the FLAG-labeled MS2-BP allows purification of the Luc mRNA along with any associated factors. (C) Prior to IP, cells express Luc mRNA to a similar extent irrespective of whether they were treated with DMSO, R12-neg, R12–8–44–3, or Ro. (D) Prior to IP (“input”), MSI2 is detected in all samples to a similar extent (as is KU-86 loading control). After pulldown of Luc mRNA, MSI2 is found associated with the mRNA in cells treated with DMSO or R12-neg, but not in cells that had been treated with R12–8–44–3 or Ro. Representative image is shown; quantification is plotted as the average of 2 independent experiments ± S.E.M. Statistical analysis was performed using unpaired two tailed t-test, with * indicating p<0.05. Uncropped Western blots from this experiment are provided as Figure S8.
To determine whether inhibition of MSI1/MSI2 by R12–8–44–3 would apply in a cellular context, we adapted an aptamer pull-down reporter assay that we previously used to validate candidate Musashi target genes. Briefly, our approach is a variation of the MS2-TRAP (MS2-tagged RNA affinity purification) method, which uses bacteriophage protein MS2-BP to extract from cells any factors that associate with RNAs containing a specific stem-loop structure (MS2) from the phage genome. Here, we designed an mRNA construct that would include a series of MS2 hairpins and also a MSI2 recognition sequence. We transfected this construct into cells that also express FLAG-tagged MS2-BP (a protein unrelated to MSI2). By affinity purification using the FLAG tag, proteins bound to the designed mRNA can be extracted from cells.
To test for inhibition of MSI2 in cells, we transfected HEK293 cells (with a high baseline MSI2 expression), with the pMS2-LUC-3’UTR from our previous studies. This vector appends onto the 3’UTR of an arbitrary gene (in this case luciferase) two key elements: UAG-motifs comprising a MSI2 recognition sequence, and a series of five MS2 hairpins. The same vector also encodes the FLAG-MS2-BP fusion needed for affinity purification (Figure 5b). Cells were then treated with each compound of interest for 24 h, and then the cells were subsequently harvested and used for anti-FLAG immunoprecipitation. […] Using qPCR we evaluated the amount of Luc mRNA in cells treated with R12–8–44–3, R12-neg, or Ro, and found this to be unchanged (Figure 5c).

The text below walks through data of PMC9882606, “Rationally designed inhibitors of the Musashi protein-RNA interaction by hotspot mimicry” (Research Square, 2023).

Sequence of MSI2 (Q96DH6 whole entry): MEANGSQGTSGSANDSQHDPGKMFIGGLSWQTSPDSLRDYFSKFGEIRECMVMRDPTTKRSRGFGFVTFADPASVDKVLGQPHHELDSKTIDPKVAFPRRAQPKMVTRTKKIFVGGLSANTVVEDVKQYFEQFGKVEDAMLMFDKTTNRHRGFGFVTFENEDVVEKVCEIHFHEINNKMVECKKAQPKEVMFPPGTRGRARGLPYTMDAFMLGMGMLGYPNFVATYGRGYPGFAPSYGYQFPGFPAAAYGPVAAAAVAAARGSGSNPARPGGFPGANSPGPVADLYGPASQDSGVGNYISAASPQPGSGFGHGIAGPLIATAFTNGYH

On to `Cc1cc(C(=O)OCc2nc(N)c3c(C)c(C)sc3n2)c(N)cc1F` [R12–8–44–3], for which the “MSI2 purified with reporter mRNA (anti-FLAG pulldown)” value is listed as “much less MSI2 is purified”. Further, the “total amount of MSI2 in cells” value (input prior to IP) was “unaffected”. Moreover, where the note is “prior to IP”, the “amount of Luc mRNA in cells (qPCR)” value is “unchanged”.
